42 compounds from patent US20240228482A1, “COMPOUNDS, COMPOSITIONS AND METHODS OF TREATING CANCER” (HOTSPOT THERAPEUTICS, INC., priority 2021, published 2024) can be followed below.

Where only a bound is given, the exact number is not on record here.

T1 sequence (Q13191 whole entry): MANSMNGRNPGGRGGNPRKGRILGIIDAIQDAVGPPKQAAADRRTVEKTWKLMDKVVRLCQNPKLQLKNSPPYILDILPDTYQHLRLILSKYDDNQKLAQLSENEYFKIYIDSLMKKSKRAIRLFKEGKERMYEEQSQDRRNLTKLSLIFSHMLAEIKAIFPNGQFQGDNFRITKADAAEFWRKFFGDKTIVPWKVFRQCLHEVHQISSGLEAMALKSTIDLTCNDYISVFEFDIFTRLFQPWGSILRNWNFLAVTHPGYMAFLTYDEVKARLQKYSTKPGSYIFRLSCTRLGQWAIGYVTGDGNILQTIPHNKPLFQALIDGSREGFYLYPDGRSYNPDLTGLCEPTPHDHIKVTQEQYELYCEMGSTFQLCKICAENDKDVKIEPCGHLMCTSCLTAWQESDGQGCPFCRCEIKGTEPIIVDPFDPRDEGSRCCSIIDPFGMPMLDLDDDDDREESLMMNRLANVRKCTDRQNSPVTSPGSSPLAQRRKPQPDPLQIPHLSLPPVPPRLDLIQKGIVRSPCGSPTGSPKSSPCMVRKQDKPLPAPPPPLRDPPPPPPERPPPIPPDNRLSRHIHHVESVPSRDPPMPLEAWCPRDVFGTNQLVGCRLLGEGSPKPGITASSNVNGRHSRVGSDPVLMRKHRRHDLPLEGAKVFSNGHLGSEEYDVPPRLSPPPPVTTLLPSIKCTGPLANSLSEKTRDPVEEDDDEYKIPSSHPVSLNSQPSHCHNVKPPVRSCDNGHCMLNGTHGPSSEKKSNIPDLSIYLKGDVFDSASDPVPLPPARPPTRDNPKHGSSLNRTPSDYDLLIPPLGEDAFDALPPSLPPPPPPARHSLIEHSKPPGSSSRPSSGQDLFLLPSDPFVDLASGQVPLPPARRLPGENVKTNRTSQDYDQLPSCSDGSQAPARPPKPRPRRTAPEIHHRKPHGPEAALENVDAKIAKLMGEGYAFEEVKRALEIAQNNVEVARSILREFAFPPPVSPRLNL

This experiment has as its target T1, CBL-B (Homo sapiens, UniProt Q13191).
T1 construct: GST
Kind of experiment: CBL-B TR-FRET IC50 screening (E1/E2 ubiquitination, Biotin-Ubiquitin, Anti GST-Tb donor / Streptavidin-d2 acceptor). The following applies: CBL-B 10 nM final; 11-point titration from 100 uM; binned A-F; read-out: CBL-B TR-FRET activity IC50. Format: biochemical. Background: In TR-FRET formats the signal depends on donor and acceptor labels being close together.
For the compound `Cc1c[nH]nc1[C@@H](c1cccc(-n2cc3c(C(F)(F)F)cc(CN4CCC[C@H](C)C4)cn3c2=O)c1)C1CCC1` [Compound 219], the IC50 is less than 0.1 µM.
The figure for `Cc1c[nH]nc1[C@H](c1cccc(-n2cc3c(C(F)(F)F)cc(CN4CCO[C@H](C)C4)cn3c2=O)c1)C1CCC1` [Compound 220] is 3 to 10 µM; for `Cc1c[nH]nc1[C@@H](c1cccc(-n2cc3c(C(F)(F)F)cc(CN4CCO[C@H](C)C4)cn3c2=O)c1)C1CCC1` [Compound 221] it is 0.1 to 0.3 µM; for `COC1CCN(Cc2cc(C(F)(F)F)c3cn(-c4cccc([C@H](c5nncn5C)C5CCC5)c4)c(=O)n3c2)CC1` [Compound 225] it is less than 0.1 µM.
With `Cn1cnnc1[C@]1(c2cccc(-n3cc4c(C(F)(F)F)cc(CN5CC6(CC6)C5)cn4c3=O)c2)C[C@@H](C)C1` [Compound 228], the IC50 was less than 0.1 µM.
The value for `Cn1cnnc1[C@]1(c2cccc(-n3cc4c(C(F)(F)F)cc(CN5CCC(F)CC5)cn4c3=O)c2)C[C@@H](C)C1` [Compound 229] was less than 0.1 µM; that for `Cn1cnnc1C1(c2cccc(-n3cc4c(C(F)(F)F)cc(Br)cn4c3=O)c2)COC1` [Compound 230] was greater than 10 µM.
Regarding `Cc1cc(-n2cc3c(C(F)(F)F)cc(Br)cn3c2=O)cc(C2(Cc3nncn3C)COC2)c1` [Compound 238], the IC50 was 1 to 3 µM.
With `Cc1cc(-n2cc3c(C(F)(F)F)cc(CN4CCC[C@H](C)C4)cn3c2=O)cc(C2(Cc3nncn3C)COC2)c1` [Compound 239], the IC50 is less than 0.1 µM.
Take `Cc1c[nH]nc1C1(c2cccc(-n3cc4c(C(F)(F)F)cc(CN5CCO[C@H](C)C5)cn4c3=O)c2)CC2(CC2)C1` [Compound 241]: the IC50 fell in the range of 0.301 to 1 µM.
The value for `C[C@@H]1CN(Cc2cc(C(F)(F)F)c3cn(-c4cccc([C@H](c5nncn5C)C5CCC5)c4)c(=O)n3c2)CCO1` [Compound 244] was less than 0.1 µM.
With `Cn1cnnc1[C@@H](c1cccc(-n2cc3c(C(F)(F)F)cc(CN4CCC(C)(C)C4)cn3c2=O)c1)C1CCC1` [Compound 245], the half-maximal inhibitory concentration (IC50) is less than 0.1 µM.
Regarding `CC(C)CN(C)Cc1cc(C(F)(F)F)c2cn(-c3cccc([C@H](c4nncn4C)C4CCC4)c3)c(=O)n2c1` [Compound 246], the IC50 is less than 0.1 µM.
As to `C[C@H]1CCN(Cc2cc(C(F)(F)F)c3cn(-c4cccc([C@H](c5nncn5C)C5CCC5)c4)c(=O)n3c2)C1` [Compound 247], the IC50 was less than 0.1 µM.
For the compound `C[C@@H]1CCN(Cc2cc(C(F)(F)F)c3cn(-c4cccc([C@H](c5nncn5C)C5CCC5)c4)c(=O)n3c2)C1` [Compound 248], the half-maximal inhibitory concentration (IC50) is less than 0.1 µM.
On to `CO[C@@H]1CCN(Cc2cc(C(F)(F)F)c3cn(-c4cccc([C@H](c5nncn5C)C5CCC5)c4)c(=O)n3c2)C1` [Compound 249], for which the IC50 was less than 0.1 µM.
The figure for `CO[C@H]1CCCN(Cc2cc(C(F)(F)F)c3cn(-c4cccc([C@H](c5nncn5C)C5CCC5)c4)c(=O)n3c2)C1` [Compound 250] is less than 0.1 µM; for `CO[C@@H]1CCCN(Cc2cc(C(F)(F)F)c3cn(-c4cccc([C@H](c5nncn5C)C5CCC5)c4)c(=O)n3c2)C1` [Compound 251] it is less than 0.1 µM; for `COC1(CNCc2cc(C(F)(F)F)c3cn(-c4cccc(C5(Cc6nncn6C)COC5)c4)c(=O)n3c2)CC1` [Compound 252] it is less than 0.1 µM.
In the case of `Cn1cnnc1CC1(c2cccc(-n3cc4c(C(F)(F)F)cc(CNCC5CCCO5)cn4c3=O)c2)COC1` (stereo not drawn) [Compound 253], the IC50 is less than 0.1 µM.
The figure for `Cn1cnnc1CC1(c2cc(C#N)cc(-n3cc4c(C(F)(F)F)cc(Br)cn4c3=O)c2)COC1` [Compound 254] is 1 to 3 µM; for `C[C@H]1CCCN(Cc2cc(C(F)(F)F)c3cn(-c4cccc([C@]5(c6nncn6C)C[C@@H](O)C5)c4)c(=O)n3c2)C1` [Compound 255] it is less than 0.1 µM; for `Cn1cnnc1[C@@H](c1cccc(-n2cc3c(C(F)(F)F)cc(CN4CCC(=O)N4)cn3c2=O)c1)C1CCC1` [Compound 258] it is less than 0.1 µM.
For `CO[C@H]1CCN(Cc2cc(C(F)(F)F)c3cn(-c4cccc([C@H](c5nncn5C)C5CCC5)c4)c(=O)n3c2)C1` [Compound 259], the IC50 is less than 0.1 µM.
The value for `C[C@H]1CCCN(Cc2cc(C(F)(F)F)c3cn(-c4cccc(N(c5nncn5C)C5CCC5)c4)c(=O)n3c2)C1` [Compound 260] was less than 0.1 µM; that for `Cn1cnnc1[C@@H](c1cccc(-n2cc3c(C(F)(F)F)cc(CN4CCc5ncsc5C4)cn3c2=O)c1)C1CCC1` [Compound 265] was less than 0.1 µM.
The figure for `CO[C@H](C)CNCc1cc(C(F)(F)F)c2cn(-c3cccc(C4(Cc5nncn5C)COC4)c3)c(=O)n2c1` [Compound 266] is less than 0.1 µM; for `Cc1c[nH]nc1[C@H](c1cccc(-n2cc3c(C(F)(F)F)cc(CN4CCO[C@H](C)C4)cn3c2=O)c1)C1COC1` [Compound 267] it is greater than 10 µM.
The value for `Cc1c[nH]nc1[C@@H](c1cccc(-n2cc3c(C(F)(F)F)cc(CN4CCO[C@H](C)C4)cn3c2=O)c1)C1COC1` [Compound 268] was greater than 10 µM.
For `C[C@H]1CCCN(Cc2cc(C(F)(F)F)c3cn(-c4cccc([C@@H](c5nnc[nH]5)C5CCC5)c4)c(=O)n3c2)C1` [Compound 269], the IC50 was less than 0.1 µM.
Regarding `C[C@H]1CCCN(Cc2cc(C(F)(F)F)c3cn(-c4cccc([C@H](c5ncn[nH]5)C5CCC5)c4)c(=O)n3c2)C1` [Compound 270], the IC50 is greater than 10 µM.
The value for `CN(Cc1cc(C(F)(F)F)c2cn(-c3cccc([C@H](c4nncn4C)C4CCC4)c3)c(=O)n2c1)Cc1cncs1` [Compound 275] was less than 0.1 µM; that for `Cn1cnnc1[C@@H](c1cccc(-n2cc3c(C(F)(F)F)cc(CN4CC5(CSC5)C4)cn3c2=O)c1)C1CCC1` [Compound 276] was less than 0.1 µM; that for `Cc1cc(-n2cc3c(C(F)(F)F)cc(CN4CCO[C@H](C)C4)cn3c2=O)cc(C2(Cc3nncn3C)COC2)c1` [Compound 277] was greater than 10 µM.
For the compound `[2H]C([2H])([2H])n1cnnc1CC1(c2cccc(-n3cc4c(C(F)(F)F)cc([C@H](C)N5CCC[C@H](C)C5)cn4c3=O)c2)COC1` [Compound 278_P1], the IC50 is less than 0.1 µM.
For `[2H]C([2H])([2H])n1cnnc1CC1(c2cccc(-n3cc4c(C(F)(F)F)cc([C@@H](C)N5CCC[C@H](C)C5)cn4c3=O)c2)COC1` [Compound 278_P2], the IC50 was less than 0.1 µM.
The figure for `C[C@@H]1CN(Cc2cc(C(F)(F)F)c3cn(-c4cccc(C5(c6nncn6C)CC(F)(F)C5)c4)c(=O)n3c2)CCO1` [Compound 279] is 0.301 to 1 µM; for `Cc1c[nH]nc1[C@H](c1cccc(-n2cc3c(C(F)(F)F)cc(CN4CCC[C@H](C)C4)cn3c2=O)c1)C1COC1` [Compound 280] it is greater than 10 µM; for `Cc1c[nH]nc1[C@@H](c1cccc(-n2cc3c(C(F)(F)F)cc(CN4CCC[C@H](C)C4)cn3c2=O)c1)C1COC1` [Compound 281] it is greater than 10 µM.
The value for `Cn1cnnc1[C@@H](c1cccc(-n2cc3c(C(F)(F)F)cc(CN4CC[C@H](C(F)(F)F)C4)cn3c2=O)c1)C1CCC1` [Compound 284] was 0.301 to 1 µM; that for `Cn1cnnc1[C@@H](c1cccc(-n2cc3c(C(F)(F)F)cc(CN4CC5(CCC5)C4)cn3c2=O)c1)C1CCC1` [Compound 286] was less than 0.1 µM.
The value for `[2H]C([2H])([2H])n1cnnc1CC1(c2cccc(-n3cc4c(C(F)(F)F)cc([C@H](C)N5CCO[C@H](C)C5)cn4c3=O)c2)COC1` [Compound 287_P1] was less than 0.1 µM.

Usually IC50 stands for the concentration at which inhibition is half-maximal.
